Results reported in US20140308313A1 (priority 2006, published 2014).

Tests used:
[1] = system: CD4 T cells producing TNFα; format: in vivo, CD1 mice; details: 10 days after 2nd immunisation, splenocytes cultured 16 hours
Method: FIG. 14 show a comparison of the CD4 T cell response against recombinant MenB antigens in mice immunised intramuscularly on day 0 and 21 with: a) a combination vaccine containing 3 MenB antigens and α-GC; b) a combination vaccine containing 3 MenB antigens and Alum; or c) with a combination vaccine containing 3 MenB antigens alone. The CD4 T cell response was assessed two weeks after the second immunisation by incubating total splenocytes with the indicated amount of MenB recombinant proteins for 16 hours ([…] of which in the presence of Brefeldin A). The number CD4 T cells producing TNFα was determined by intracellular staining and FACS analysis). […] As a positive control, response of all three groups of mice to polyclonal stimulation was tested.
A second experiment was conducted to assess the ex vivo CD4 T cell response to MenB antigens. Groups of 6 CD1 female mice were immunised twice with the mix of MenB antigens, formulated in PBS, alum or α-GC. 10 days after the 2nd immunisation, 3 mice/group were sacrificed and their spleens were removed. Whole splenocyte suspensions from individual mice were cultured with the MenB antigens for 16 hours, the last 12 of which were in the presence of brefeldin A to allow intracellular accumulation of cytokines. […] Percentages of CD3+CD4+CD69+ cytokine+ cells in the total CD4+ cell population were determined by FACS analysis.

GBS80-IgG = system: GBS80-IgG; set-up: species or system mice; details: mouse, in vivo
MenB = system: MenB; set-up: species or system mice; details: mouse, in vivo
[2] = system: protein-specific antibodies (TT, DT, H3N2); set-up: species or system C57/BL6 mice; details: mouse, in vivo
[3] = system: MenB antigens ΔG287nz-953, 936-741 and 961c; set-up: species or system mice; details: mouse, in vivo
H3N2-specific antibodies [4] = test: α-GC in first, second or both priming doses of H3N2, challenge at week 56; format: in vivo, C57BL/6 mice
Text: (§1) FIG. 8 depicts the immunisation schedule used to assess whether α-GC is required to be present in all vaccine doses used at priming. 20 C57BL/6 female mice, aged 6-8 weeks, were divided into 4 groups of 5 mice. Group 1) was immunised with H3N2 in PBS at week 0 and H3N2+α-GC 2 weeks later. Group 2) were immunised with H3N2+α-GC at week 0 and H3N2 in PBS 2 weeks later. Group 3) were immunised with H3N2 in PBS at week 0 and week 2. Group 4) were immunised with H3N2 and α-GC at week 0 and 2 weeks later. 56 weeks after the initial immunisation, mice in all groups were challenged with 3 μg H3N2 in PBS and recall response was assessed at 58 weeks. All immunisations were intramuscular.
as §1, with “20” for “FIG. 8 depicts the immunisation schedule used to assess whether α-GC is required to be present in all vaccine doses used at priming. 20”, “PBS.” for “PBS and recall response was assessed at 58 weeks.”

[5] = system: MenB-specific memory B cells; set-up: species or system mice; details: mouse, in vivo
H3N2-specific antibodies [6] = test: H3N2 antibody response in mice bearing or lacking iNKT cells or CD1d; format: in vivo; details: mice lacking CD1d (CD1−/−); data not shown
Text: Mice lacking iNKT cells (Ja18−/−) immunised with H3N2 and α-GC (closed boxes) show no enhancement in serum titer of H3N2-specific antibodies compared to mice lacking iNKT cells immunised with H3N2 alone (open boxes). All immunisations were subcutaneous.

## CCCCCCCCCCCCCCCCCCCCCCCCCC(=O)N[C@@H](CO[C@H]1OC(CO)[C@H](O)C(O)C1O)[C@H](O)[C@@H](O)CCCCCCCCCCCCCC (stereo partly drawn) [α-GC, α-galactosylceramide]
[1]
  expansion of CD4 T cells producing TNFα in response to MenB antigens: more effective than alum
GBS80-IgG
  GBS80-IgG response in the mothers relative to alum: 8 fold
MenB
  bactericidal antibody titers compared to alum: higher bactericidal antibody titers than alum
[2]
  serum titers of protein-specific antibodies compared to proteins alone: one to two logs higher
[3]
  antibody response (IgG titers) to the three MenB antigens: as effective as alum
H3N2-specific antibodies [4]; first versus second vaccine dose
  efficacy by timing of α-GC dose: Maximal efficacy was observed when α-GC was given in the first vaccine dose
H3N2-specific antibodies [4]; two weeks after booster with H3N2 alone on week 56
  recall response (H3N2 Ig titers) compared to 2 doses of H3N2 alone: higher recall responses
H3N2-specific antibodies [4]; α-GC in both, first only or second only immunisation
  H3N2-antibody response compared to H3N2 in PBS: enhance the antibody response even when given only in the first or second immunisation
[5]
  frequencies of MenB-specific memory B cells in spleen compared to alum: higher frequencies of MenB-specific memory B cells
H3N2-specific antibodies [6]
  adjuvant activity: did not display adjuvant activity
